The numbers were not newly measured in patent US20250331550A1, “AEROSOL-GENERATING ARTICLE EMBEDDED AVERSIVE AGENT” (PHILIP MORRIS PRODUCTS S.A., priority 2022, published 2025), which cites them from elsewhere.

Where a name gives a salt, the structure may show the parent alone.

In the data set the test system is test panel. The note with it: reciprocal of the dilution that still has a bitter taste; quinine hydrochloride set at 200,000.
As to `CC1=C[C@H]2[C@H]3[C@H](C(C)=C4[C@H]5OC(=O)[C@@H](C)[C@@H]5CC[C@](C)(O)[C@@H]43)[C@@]13[C@@H]2[C@@](C)(O)CC[C@H]1[C@H](C)C(=O)O[C@@H]13` [Absinthin, absinthin], the Bitterness value is 3,000,000. In the case of `C[C@@]12C[C@@H](c3ccoc3)OC(=O)[C@@H]1CC[C@]1(C)[C@H]2[C@@H]2C=C[C@@]1(O)C(=O)O2` [Columbin, columbin], the Bitterness value is on record as 60,000,000. Consider `COC1=C[C@@H](C)[C@@H]2C[C@H]3OC(=O)C[C@H]4C(C)=C(OC)C(=O)[C@H]([C@@]2(C)C1=O)[C@@]34C` [Quassin, quassin], for which the Bitterness value is reported as 13,000,000.

Consider `C=C[C@H]1C[N@@]2CC[C@H]1C[C@H]2[C@H](O)c1ccnc2ccc(OC)cc12` [Quinine hydrochloride, quinine hydrochloride], for which the Bitterness value is recorded as 200,000. Take amarogentin: the Bitterness value is recorded as 58,000,000.
